Usually IC50 stands for the concentration at which inhibition is half-maximal. A word on the solubility: it is how much of the substance goes into solution per volume.

In brackets after ≈: the same amount, converted by molar mass.

One data set has as its target T1, acid ceramidase (Homo sapiens, UniProt Q13510).
T1 construct: Cell lysates overexpressing acid ceramidase were used as the enzyme source; expressed in transfected cells
T1 sequence (Q13510 22-395): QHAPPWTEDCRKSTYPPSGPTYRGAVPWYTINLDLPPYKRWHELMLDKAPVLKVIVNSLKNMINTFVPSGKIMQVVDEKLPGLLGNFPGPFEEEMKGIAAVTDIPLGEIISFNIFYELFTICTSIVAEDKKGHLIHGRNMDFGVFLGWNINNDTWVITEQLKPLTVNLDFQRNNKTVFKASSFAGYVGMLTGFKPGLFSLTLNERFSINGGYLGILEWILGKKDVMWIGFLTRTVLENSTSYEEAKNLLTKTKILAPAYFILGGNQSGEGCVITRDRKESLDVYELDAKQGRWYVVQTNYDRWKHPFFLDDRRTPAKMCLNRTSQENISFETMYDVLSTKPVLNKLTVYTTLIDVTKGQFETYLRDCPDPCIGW
Description: Acid ceramidase inhibition, biochemical fluorescent assay with cell lysates overexpressing acid ceramidase, substrate Rbm14-12. Particulars: substrate Rbm14-12 6.3 μM. The essentials:
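Lysate of cells overexpressing acid ceramidase (10 μg protein) preincubated with compound dose series 1 hr at RT in 25 mM NaAC, 100 mM NaCl, pH 4.5, then reacted 1 hr with 6.3 μM Rbm14-12. Stopped with NaIO4/glycine buffer pH 10.6, fluorescence ex360/em446; IC50 by four-parameter fit.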

Data set [1] is described as follows: Compound solubility in water.
Where [2] appears, read: pH 4.5, 1 hr preincubation at RT.

`COc1nc2cc(N3CCOCC3)c(F)cc2n1C(=O)NCCc1ccccc1` [Example 334b, 6-fluoro-2-methoxy-5-morpholino-N-(2-phenethyl)-1H-benzo[d]imidazole-1-carboxamide] displayed a concentration for half-maximal inhibition (IC50) at acid ceramidase (pH 4.5) below 200 nM. The solubility in data set [1] is 5 µg/mL (≈ 12.5 µM).

The compound `CC(C)CCNC(=O)n1cnc2c(N3CCN(C)C4(CC4)C3)cccc21` [Example 157, N-iso-Pentyl-4-(4-methyl-4,7-diazaspiro[2.5]-octan-7-yl)-1H-benzo[d]imidazole-1-carboxamide] registered an IC50 at acid ceramidase (setting [2]) of 200 to 1000 nM. For the same compound, the concentration in solution in data set [1] (solubility) came to 27 µg/mL (≈ 76 µM).

`CC(C)CCNC(=O)n1cnc2c(N3CCN(C(C)C)CC3)cccc21` [Example 207, N-iso-Pentyl-4-(4-isopropylpiperazin-1-yl)-1H-benzo[d]imidazole-1-carboxamide] came in with a half-inhibitory concentration (IC50) at acid ceramidase (pH 4.5) of 200 to 1000 nM. In data set [1], this compound showed a solubility of 32 µg/mL (≈ 89.5 µM).

As for `O=C(NCCCc1ccccc1)n1cnc2c(N3CCN(C4COC4)CC3)cccc21` [Example 286, 4-(4-(Oxetan-3-yl)piperazin-1-yl)-N-(3-phenylpropyl)-1H-benzo[d]imidazole-1-carboxamide], the IC50 against acid ceramidase (pH 4.5) is below 200 nM. In addition, the concentration in solution in data set [1] (solubility) came to 24 µg/mL (≈ 57.2 µM).

In turn, `C[C@H](CCNC(=O)n1cnc2c(N3CCN(C)CC3)cccc21)c1ccccc1` [Example 253b, (R)-4-(4-methylpiperazin-1-yl)-N-(3-phenylbutyl)-1H-benzo[d]imidazole-1-carboxamide] returned an IC50 against acid ceramidase (pH 4.5) below 200 nM. In data set [1], this compound gave a solubility of 27 µg/mL (≈ 69 µM).

For `COc1nc2cc(-c3cccnc3)ccc2n1C(=O)NCCc1ccccc1` [Example 30a, 2-Methoxy-N-phenethyl-5-(pyridin-3-yl)-1H-benzo[d]imidazole-1-carboxamide], the half-inhibitory concentration (IC50) at acid ceramidase (setting [2]) was below 200 nM. The compound also registered a solubility in data set [1] of 1.6 µg/mL (≈ 4.3 µM).

In turn, `CC(C)CCNC(=O)n1c(OCCN(C)C)nc2ccccc21` [Example 120, 2-(2-(Dimethylamino)ethoxy)-N-iso-pentyl-1H-benzo[d]imidazole-1-carboxamide] returned an IC50 on acid ceramidase (setting [2]) below 200 nM. The solubility in data set [1] came to 21 µg/mL (≈ 66 µM).

`CCCCNC(=O)n1cnc2ccc(C(F)(F)F)cc21` [Example 49b, N-butyl-6-(trifluoromethyl)-1H-benzo[d]imidazole-1-carboxamide] displayed an IC50 against acid ceramidase (setting [2]) below 200 nM. This compound also had a solubility in data set [1] of 12.6 µg/mL (≈ 44.2 µM).

`O=C(NCCc1ccccc1)n1cnc2c(N3CCN(C4COC4)CC3)cccc21` [Example 326, 4-(4-(Oxetan-3-yl)piperazin-1-yl)-N-phenethyl-1H-benzo[d]imidazole-1-carboxamide]: on acid ceramidase (pH 4.5), the half-inhibitory concentration (IC50) was below 200 nM. In data set [1], this compound returned a solubility of 21 µg/mL (≈ 51.8 µM).

With `O=C(NCCc1ccccc1)n1cnc2ccc(C(F)(F)F)nc21` [Example 66a, N-Phenethyl-5-(trifluoromethyl)-3H-imidazo[4,5-b]pyridine-3-carboxamide], the 50% inhibitory concentration (IC50) at acid ceramidase (setting [2]) was below 200 nM. Also, in data set [1], the solubility was determined as 6 µg/mL (≈ 17.9 µM).

On to `CC(=O)N1CCN(c2cccc3c2ncn3C(=O)NCC2(CC(C)C)CC2)CC1` [Example 222, 4-(4-Acetylpiperazin-1-yl)-N-((1-iso-butyl-cyclopropyl)methyl)-1H-benzo[d]imidazole-1-carboxamide], for which, on acid ceramidase (pH 4.5), the concentration for half-maximal inhibition (IC50) is below 200 nM. The solubility in data set [1] was determined as 7 µg/mL (≈ 17.6 µM).

On to `COc1nc2ccc(N3CCN(C(C)=O)CC3)cc2n1C(=O)NCCCc1ccccc1` [Example 236b, 6-(4-acetylpiperazin-1-yl)-2-methoxy-N-(3-phenylpropyl)-1H-benzo[d]imidazole-1-carboxamide], for which, on acid ceramidase (pH 4.5), the half-maximal inhibitory concentration (IC50) was below 200 nM. The concentration in solution in data set [1] (solubility) was 23 µg/mL (≈ 52.8 µM).

In the case of `COc1nc2ccc(-c3cncnc3)cc2n1C(=O)NCC(C)C` [Example 81a, N-iso-Butyl-2-methoxy-6-(pyrimidin-5-yl)-1H-benzo[d]imidazole-1-carboxamide], the IC50 on acid ceramidase (setting [2]) was in the range of 200 to 1000 nM. The same compound had a solubility in data set [1] of 22.8 µg/mL (≈ 70.1 µM).

On to `COc1nc2ccccc2n1C(=O)NCCCCn1ccc(C(C)(C)C)n1` [Example 187, N-(4-(3-(tert-Butyl)-1H-pyrazol-1-yl)butyl)-2-methoxy-1H-benzo[d]imidazole-1-carboxamide], for which the IC50 on acid ceramidase (pH 4.5) fell in the range of 200 to 1000 nM. Further, the concentration in solution in data set [1] (solubility) came to 22 µg/mL (≈ 59.5 µM).

For the origin of these results see US20220380319A1 (Bial - R&D Investments, S.A., priority 2019, published 2022).
